pEC50: −log10 of the molar value.

Assay [1] has as its target T1, β-kinase domain of the human insulin receptor (CKD) (Homo sapiens, UniProt P06213).
T1 construct: The complete β-kinase domain of the human insulin receptor (CKD); made in house
Briefly: 32P-Cytoplasmic Kinase Domain (CKD) autophosphorylation assay. It is filed as biochemical. The settings on record: 32P incorporated into CKD band, percentage of the vehicle (DMSO) level; 10 minutes at room temperature; compound concentration not given.

Another assay relates to 3T3 L1 fibroblasts. Briefly: Glucose transport activity (14C-2-deoxy-D-glucose uptake). The conditions noted are these: Mus musculus; differentiated 3T3 L1 cells, insulin 5.6 nM; concentration giving increase in glucose transport generally 150% of the vehicle control. In kind it is cell-based. The method, then: 3T3 L1 fibroblasts (ATCC) were grown in Dulbecco's modified Eagle's medium (DMEM) with 10% fetal bovine serum (FBS, medium). The cells were plated at a density of 3×10^4 cells/well in 24-well plates. Two days after confluence was reached, the cells were treated for 3 days with 0.5 mM isobutylmethylxanthine (IBMX), 1 μM dexamethasone, supplemented with 1.7 μM insulin. The cells were then transferred to medium with 1.7 μM insulin for 2 more days. The cells were maintained in medium for an additional 4 days. Finally the cells were serum starved overnight in 0.1% bovine serum albumin (BSA) in DMEM.
The following day, the culture medium was replaced with 150 mM NaCl, 1.7 mM KCl, 0.9 mM CaCl2, 1.47 mM K2HPO4 (pH 7.4) to which was added either the experimental compounds, or their vehicle (DMSO). Insulin or its vehicle (0.01% BSA) was diluted in the assay buffer (containing test compound or vehicle, respectively) to a final concentration of 5.6 nM. After incubation for 30 min at 37° C. 5 μCi/mL ^14C-2-[…]-D-glucose was added, and the incubation was continued for additional 30 min at 37° C. The cells were then washed 3 times with ice-cold PBS/20 mM glucose and […] in 250 μl of lysis buffer (50 mM HEPES pH 7.6, 1% Triton X-100) for 30 min at room temperature. Radioactivity in the lysate was quantified by scintillation counting.
Once ^14C-2-deoxy-D-glucose is transported into the cell it is not released. Glucose transport is, therefore, proportional to the amount of radioactivity in the lysate. The concentration of compound necessary to produce an increase in glucose transport greater than the sum of the standard deviation of the vehicle control plus the largest standard deviation of a test sample (generally 150% of the vehicle control) was recorded as the EC (effective concentration).

T1 sequence (P06213 980-1382 limits assumed): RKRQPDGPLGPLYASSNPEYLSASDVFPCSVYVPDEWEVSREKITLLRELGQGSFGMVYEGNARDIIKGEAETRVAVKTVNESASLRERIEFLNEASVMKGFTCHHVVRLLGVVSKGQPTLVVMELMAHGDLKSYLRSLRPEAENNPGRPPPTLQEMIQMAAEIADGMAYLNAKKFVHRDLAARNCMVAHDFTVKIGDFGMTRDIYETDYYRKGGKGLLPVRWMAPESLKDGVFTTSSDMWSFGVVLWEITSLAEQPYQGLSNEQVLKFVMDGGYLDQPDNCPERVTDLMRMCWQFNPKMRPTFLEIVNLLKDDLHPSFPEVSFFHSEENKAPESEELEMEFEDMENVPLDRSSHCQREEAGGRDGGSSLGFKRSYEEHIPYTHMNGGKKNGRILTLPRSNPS

As for `O=C(Nc1cccc2cc(S(=O)(=O)O)ccc12)c1cc(NC(=O)c2cccc(O)c2C(=O)O)cc(C(=O)Nc2cccc3cc(S(=O)(=O)O)ccc23)c1` [Compound 21, 2-(N-{3,5-bis[N-(6-sulfonaphthyl)carbamoyl]phenyl}carbamoyl)-6-hydroxybenzoic acid], the “Activity (% Control)” value in assay [1] was 104.3 % Control. The pEC50 (as a rule, the EC50 on a negative log10 scale, so that one unit is a factor of ten) in the assay on 3T3 L1 fibroblasts is less than 3.60.

For the compound `COc1ccc(C(=O)Nc2cc(C(=O)Nc3cccc4cc(S(=O)(=O)O)ccc34)cc(C(=O)Nc3cccc4cc(S(=O)(=O)O)ccc34)c2)cc1` [Compound 9, 5-({3-[(4-methoxyphenyl)carbonylamino]-5-[N-(6-sulfonaphthyl)carbamoyl]phenyl}carbonylamino)naphthalene-2-sulfonic acid], the “Activity (% Control)” value in assay [1] worked out at 125.3 % Control. Moreover, the pEC50 in the assay on 3T3 L1 fibroblasts is 5.00.

Take `O=C(Nc1cc(C(=O)Nc2cccc3cc(S(=O)(=O)O)ccc23)cc(C(=O)Nc2cccc3cc(S(=O)(=O)O)ccc23)c1)c1ccc(Cl)cc1` [Compound 19, 5-({3-[(4-chlorophenyl)carbonylamino]-5-[N-(6-sulfonaphthyl)carbamoyl]phenyl}carbonylamino)naphthalene-2-sulfonic acid]: the “Activity (% Control)” value in assay [1] is listed as 99 % Control. For the same compound, the pEC50 in the assay on 3T3 L1 fibroblasts was 3.82.

Turning to `O=C(Nc1cc(C(=O)Nc2cccc3cc(S(=O)(=O)O)ccc23)cc(C(=O)Nc2cccc3cc(S(=O)(=O)O)ccc23)c1)c1cccc([N+](=O)[O-])c1` [Compound 15, 5-({3-[(3-nitrophenyl)carbonylamino]-5-[N-(6-sulfonaphthyl)carbamoyl]phenyl}carbonylamino)naphthalene-2-sulfonic acid], in assay [1], the “Activity (% Control)” value is 88.2 % Control. The pEC50 in the assay on 3T3 L1 fibroblasts is 3.62.

Regarding `O=C(Nc1cc(C(=O)Nc2cccc3cc(S(=O)(=O)O)ccc23)cc(C(=O)Nc2cccc3cc(S(=O)(=O)O)ccc23)c1)c1cccc(F)c1` [Compound 11, 5-({3-[(3-fluorophenyl)carbonylamino]-5-[N-(6-sulfonaphthyl)carbamoyl]phenyl}carbonylamino)naphthalene-2-sulfonic acid], the “Activity (% Control)” value in assay [1] came to 94 % Control. In the assay with 3T3 L1 fibroblasts, the pEC50 is 4.70.

With `Cc1ccc(C(=O)Nc2cc(C(=O)Nc3cccc4cc(S(=O)(=O)O)ccc34)cc(C(=O)Nc3cccc4cc(S(=O)(=O)O)ccc34)c2)cc1[N+](=O)[O-]` [Compound 16, 5-({3-[(3-nitro-4-methylphenyl)carbonylamino]-5-[N-(6-sulfonaphthyl)carbamoyl]phenyl}carbonylamino)naphthalene-2-sulfonic acid], the “Activity (% Control)” value in assay [1] is reported as 99.9 % Control. Further, the pEC50 in the assay on 3T3 L1 fibroblasts is 4.70.

Take `Cc1cccc(C(=O)Nc2cc(C(=O)Nc3cccc4cc(S(=O)(=O)O)ccc34)cc(C(=O)Nc3cccc4cc(S(=O)(=O)O)ccc34)c2)c1` [Compound 7, 5-({3-[(3-methylphenyl)carbonylamino]-5-[N-(6-sulfonaphthyl)carbamoyl]phenyl}carbonylamino)naphthalene-2-sulfonic acid]: the “Activity (% Control)” value in assay [1] came to 93.3 % Control. The compound also showed a negative-log EC50 (pEC50) in the assay with 3T3 L1 fibroblasts of less than 3.60.

In the case of `O=C(Nc1cccc2cc(S(=O)(=O)O)ccc12)c1cc(NC(=O)c2cnc3ccccc3n2)cc(C(=O)Nc2cccc3cc(S(=O)(=O)O)ccc23)c1` [Compound 39], the “Activity (% Control)” value in assay [1] is 96.9 % Control. The compound also gave a pEC50 in the assay on 3T3 L1 fibroblasts of 4.00.
